{"source": "patent EP0960886B1", "about": "“Peptide T and related peptides in the treatment of inflammation, including multiple sclerosis” (priority 1992, dated 1993)", "key": {"LPS": {"test_system": "LPS", "test": "LPS-induced inflammation in mice (Example 5)", "type": "in vivo, balb/c mice", "design": "key: indicated on a scale of (-) to (+++); indicated on a scale of (-) to (+++); indicated on a scale of (-) to (+++)", "protocol": "Normal balb/c mice (female, 12 weeks) were administered LPS (250 µg, E. coli K-235, Sigma cat. no. L-2018) at time zero. One group of mice (50 animals) were then treated at 30 minutes intervals by i.p. injections of bovine serum albumin (BSA) (Sigma cat. no. 6793) dissolved in pyrogen-free, sterile, isotonic water (2.5 mg BSA per animal per injection, each injection containing 100 µl).\nThe second group of mice (50 animals) were treated at 30 minutes intervals by i.p. injections of Peptide T (Carlbiotech A/S batch 109401) dissolved in pyrogen-free, sterile, isotonic water (2.5 mg Peptide T per animal per injection, each injection 100 µl).\nGlucose levels were determined on blood samples after 3 hours. Subjective parameters such as secretion from the eye, diarrhoea and general well being are indicated on a scale of (-) to (+++)."}, "[1]": {"test_system": "Human umbilical vein endothelial cells", "test": "TNF-induced tissue factor expression on endothelial cells, ELISA (Example 6)", "type": "cell-based", "conditions": "100 units/ml human recombinant TNF, 4 h; Peptide T 0.5 to 100 µg/ml; triplicate cultures", "protocol": "Human umbilical vein endothelial cells were cultured in M199 medium supplemented with 10% foetal calf serum, endothelial cell growth factor, penicillin, streptomycin and L-glutamine in 96-well dishes using a modification of the procedure of Bevilaqua et al, Proc. Natl. Acad. Sci. USA 83 4533 (1986)). TNF treatment of cultures (100 units.ml) was for 4 h at 37°C in the presence of growth medium, after which the cells were washed and fixed. Cultures were, also treated with Peptide T + TNF or Peptide T alone. In these cultures Peptide T was at a concentration which ranged from 0.5 to 100 µg/ml. Tissue factor expression by the endothelial cells treated with TNF with or without peptide T was determined in an ELISA using a monoclonal antibody which neutralises the activity of human tissue factor (Carlbiochem A/S). Bound anti-tissue factor antibody was detected using peroxidase-conjugated rabbit anti-mouse Ig and the substrate ABST. Colour intensity was determined by the optical density of each well at 405nm."}, "allogeneic PBMC": {"test_system": "allogeneic PBMC", "test": "Two way MLR (Example 9)", "type": "cell-based, human", "conditions": "without Peptide T 1365 ± 335", "protocol": "A two way MLR was performed using 10^5 allogeneic PBMC (cpm of A = 142 ± 86, B = 148 ± 84) cocultured in 200 µl of media as described in Table III.\nPeptide T given on the first day of an MLR will inhibit allogeneic induced proliferation of PBMC (Table IV)."}, "TNFα": {"test_system": "TNFα", "test": "Production of TNFα by Con A stimulated PBMC, radioimmune assay (Example 12)", "type": "cell-based, human", "protocol": "Production of Tumour Necrosis Factor α (TNFα): 5x10^6 PBMC/ml were incubated in the presence of Con A (6.25µg/ml) for 48 hours in a humid atmosphere, 5% CO2, 37°C. Peptide T (10^-9M) was added at t=0 and 24 hours. At the end of incubation, SEPHADEX™ G25 (Pharmacia) was added (10mg/ml) and incubated for 10 minutes to remove mitogen. PBMC and SEPHADEX were pelleted by centrifugation and the supernatant tested for levels of TNFα using a TNFα radioimmune assay kit from Amersham. Samples were analysed in duplicate."}, "K562 target cells": {"test_system": "K562 target cells", "test": "Macrophage cytotoxicity assay (two step, K562 target cells)", "type": "cell-based", "protocol": "The MO/MAC cytotoxicity assay is a two step assay. After isolation of adherent cells (mainly MO/MAC) from PBMC, MO/MAC are activated by lymphokines (including IFN gamma and LPS. Subsequent to washing which removes activators, ^3H-thymidine labelled K562 target cells were added to activated MO/MAG and incubated for 3 days. The degree of cytotoxicity was proportional to the amount of radioactive label released into the culture supernatant, is shown in the following scheme : [drawing 8]"}, "K562 cells": {"test_system": "K562 cells", "test": "MO/MAC supernatant cytotoxicity against K562 cells", "type": "cell-based", "protocol": "Supernatant (SN) of activated MO/MAC were collected from monolayers of PBMC derived adherent cells that had been exposed to LPS for 23 hours. This SN was tested for cytolytic activity against ^3H-thymidine labelled K562 cells in a 48 hour, 37°C cytotoxicity assay. SN were stored at 4°C overnight or stored frozen at -20°C for longer periods before using.\nThe ability of MO/MAC culture SN to lyse target K562 cells was determined in the presence of Peptide T. MO/MAC culture SN was used at a final dilution of 1:6 in the culture well."}, "HIV": {"test_system": "HIV", "conditions": "100 nM Peptide T; cited from earlier work"}, "gp120": {"test_system": "gp120", "conditions": "rat hippocampal membranes; cited from earlier work"}, "[2]": {"conditions": "t3hrs, LPS 250 µg, 2.5 mg Peptide T i.p. at 30 minutes intervals"}}, "data": [{"smiles": "C[C@@H](N)C(=O)N[C@@H](CO)C(=O)N[C@H](C(=O)N[C@H](C(=O)N[C@H](C(=O)N[C@@H](CC(N)=O)C(=O)N[C@@H](Cc1ccc(O)cc1)C(=O)N[C@H](C(N)=O)[C@@H](C)O)[C@@H](C)O)[C@@H](C)O)[C@@H](C)O", "note": "[Peptide T, D-Ala-Ser-Thr-Thr-Thr-Asn-Tyr-Thr-NH2]", "values": [{"measurement": "General well being", "setting": "LPS; t0 (baseline)", "value": "-"}, {"measurement": "Secretion from eyes", "setting": "LPS; t0 (baseline)", "value": "-"}, {"measurement": "Diarrhoea", "setting": "LPS; t0 (baseline), LPS 250 µg at time zero", "value": "-"}, {"measurement": "Diarrhoea", "setting": "LPS; [2]", "value": "+"}, {"measurement": "General well being", "setting": "LPS; [2]", "value": "+"}, {"measurement": "Secretion from eyes", "setting": "LPS; [2]", "value": "+"}, {"measurement": "expression of tissue factor on endothelial cells", "setting": "[1]", "value": "inhibited"}, {"measurement": "cpm ± SD", "setting": "allogeneic PBMC; Peptide T 10^-0 mol/l", "value": "764 ± 77", "unit": "cpm"}, {"measurement": "cpm ± SD", "setting": "allogeneic PBMC; Peptide T 10^-5 mol/l", "value": "649 ± 263", "unit": "cpm"}, {"measurement": "cpm ± SD", "setting": "allogeneic PBMC; Peptide T 10^-7 mol/l", "value": "534 ± 108", "unit": "cpm"}, {"measurement": "cpm ± SD", "setting": "allogeneic PBMC; Peptide T 10^-11 mol/l", "value": "681 ± 222", "unit": "cpm"}, {"measurement": "cpm ± SD", "setting": "allogeneic PBMC; Peptide T 10^-13 mol/l", "value": "235 ± 4", "unit": "cpm"}, {"measurement": "cpm ± SD", "setting": "allogeneic PBMC; Peptide T 10^-15 mol/l", "value": "371 ± 117", "unit": "cpm"}, {"measurement": "cpm ± SD", "setting": "allogeneic PBMC; Peptide T 10^-17 mol/l", "value": "672 ± 261", "unit": "cpm"}, {"measurement": "TNFα", "setting": "TNFα; PBMC+Con A (6.25µg/ml)+Peptide T 10^-9M, 48 hours, PBMC+Con A alone 69.0 ± 6.9", "value": "47.0 ± 0.1", "unit": "fmol/100ul"}, {"measurement": "TNFα", "setting": "TNFα; PBMC+RPMI+Peptide T, no Con A, 48 hours", "value": "<1", "unit": "fmol/100ul"}, {"measurement": "TNFα", "setting": "TNFα; RPMI+Peptide T (no cells), Peptide T 10^-9M", "value": "<1", "unit": "fmol/100ul"}, {"measurement": "cytotoxicity of activated MO/MAC", "setting": "K562 target cells; Peptide T added concurrently with target cells or every day of the culture", "value": "able to inhibit"}, {"measurement": "ability of resting MO/MAC to be activated", "setting": "K562 target cells; Peptide T added concurrently with the activators", "value": "did not affect"}, {"measurement": "concentration below which cytotoxicity returned to control levels", "setting": "K562 cells; Figure 8", "value": "below 1x10^-15 M"}, {"measurement": "concentration still able to block MO/MAC SN mediated lysis of K562", "setting": "K562 cells; SN at final dilution of 1:6", "value": 0.1, "unit": "pM"}, {"measurement": "reduction of reverse transcriptase", "setting": "HIV", "value": "ninefold reduction"}, {"measurement": "concentrations that inhibit the binding of radiolabelled gp120", "setting": "gp120", "value": 0.1, "unit": "nM"}]}]}
